Assay results reported in patent US11040031B2, “Pyrazole derivatives as MALT1 inhibitors” (Janssen Pharmaceutica NV, priority 2018, dated 2021).
Where two headings read alike, the source gives them in different places. Each block holds one compound with its values, some of them ahead of it.

Legend:
[1] = test system: OCI-Ly3 ABC-DLBCL cell line; assay: 4-day proliferation assay OCI-Ly3; format: cell-based; settings: Homo sapiens, 96 h; 10,000 OCI-Ly3 cells per well, 4 days, CellTiterGLO; read-out: Anti-proliferation: OCI-LY-3 IC50
Description: To assess anti-proliferative effects, MALT1 inhibitor test compounds were tested in 4-day proliferation assays using three different DLBCL cell lines.
Cells should be kept between 0.5-2.5 million cells per mL during culturing and cells should be supplemented every 2-3 days with fresh 50 μM beta-mercaptoenthanol. No beta-mercaptoethanol is used during the proliferation assay. OCI-Ly7 cells were propagated in IMDM (ThermoFisher) supplemented with 10% fetal bovine serum (HyClone), 2 mM L-glutamine (Sigma Aldrich) and 50 μg/mL Gentamycin. Cell passage numbers should not exceed 30.
10,000 TMD8, 10,000 OCI-Ly3 or 2,000 OCI-Ly7 cells were seeded in 100 μL media per well and incubated for 4 days at 37° C. and 5% CO2. Cell plating numbers were chosen based on growth curves to ensure linear cell growth. After 4 days of incubation 50 μl CellTiterGLO reagent (Promega) were added to each well and luminescence was measured on the Envision after 10 min of incubation at room temperature.

[2] = target: T1, full-length MALT1 protein (Strep-MALT1(1-824)-His) (Homo sapiens, UniProt Q9UDY8); assay: biochemical;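 note: fluorogenic LRSR-AMC substrate cleavage by MALT1, 50 min compound preincubation then 4 h reaction at RT, 11-point dilution from 30 µM, scaled between enzyme-free and untreated enzyme controls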
T1 sequence (Q9UDY8 1-824): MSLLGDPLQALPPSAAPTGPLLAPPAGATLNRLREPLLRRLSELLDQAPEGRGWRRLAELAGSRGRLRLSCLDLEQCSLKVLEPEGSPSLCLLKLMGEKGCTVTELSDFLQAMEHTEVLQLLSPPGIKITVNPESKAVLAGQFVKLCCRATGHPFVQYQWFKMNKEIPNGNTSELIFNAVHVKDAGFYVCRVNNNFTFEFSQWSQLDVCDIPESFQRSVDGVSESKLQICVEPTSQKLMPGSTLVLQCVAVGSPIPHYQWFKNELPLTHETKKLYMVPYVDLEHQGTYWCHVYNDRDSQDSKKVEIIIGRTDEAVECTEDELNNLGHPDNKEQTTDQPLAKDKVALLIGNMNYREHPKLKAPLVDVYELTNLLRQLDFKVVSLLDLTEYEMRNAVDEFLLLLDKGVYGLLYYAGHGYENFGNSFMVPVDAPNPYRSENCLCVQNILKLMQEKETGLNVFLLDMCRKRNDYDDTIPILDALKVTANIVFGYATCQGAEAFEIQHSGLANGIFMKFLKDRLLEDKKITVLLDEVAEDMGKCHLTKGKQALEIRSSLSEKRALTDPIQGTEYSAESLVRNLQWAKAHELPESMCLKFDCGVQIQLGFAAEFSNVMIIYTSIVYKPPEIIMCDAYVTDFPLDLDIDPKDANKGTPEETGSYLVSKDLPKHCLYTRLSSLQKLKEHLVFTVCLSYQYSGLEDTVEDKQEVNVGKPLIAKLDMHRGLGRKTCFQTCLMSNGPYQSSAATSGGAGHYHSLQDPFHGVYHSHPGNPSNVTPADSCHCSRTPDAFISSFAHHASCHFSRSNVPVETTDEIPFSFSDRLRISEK

[3] = test system: Secretion of IL6 by OCI-LY3 ABC-DLBCL cells; assay: Human IL6 Mesoscale assay (OCI-LY3); format: cell-based; settings: read-out: Human IL6 Mesoscale assay (OCI-LY3)
Description: (§1) NFKB signaling regulates the secretion of multiple cytokines, including IL6 and IL10. Secretion of the cytokines IL6 and IL10 by TMD8 or OCI-LY3 ABC-DLBCL cells was measured using a mesoscale assay.
(§2) Cell passage number should not exceed 30. Cells should be kept between 0.5-2.5 million cells per mL during culturing and cells should be supplemented every 2-3 days with fresh 50 µM beta-mercaptoenthanol. No beta-mercaptoethanol was used during the mesoscale assay.
(§3) DMSO control wells were used to determine the maximum signal (High Control (HC)). […] Compounds and cells were incubated for 24 h at 37° C. and 5% CO2 (assay volume is 150 μL). After 24 h of incubation 50 μL of the supernatant was transferred to a MSD plate (V-Plex Proinflammation Panel 1 (human) kit, Mesoscale (MSD)) and incubated for 2 h with vigorous shaking (600 rpm) at room temperature. Following incubation, plates were washed 3× with PBS+0.05% Tween-20 and 25 μL detection antibody solution (IL6 & IL10 antibodies in diluent 3 (MSD)) was added per well followed by 2 h of incubation with vigorous shaking (600 rpm) at room temperature. After 3× washes with PBS+0.05% Tween-20, plates were incubated with 150 μL 2× Read Buffer T and read on SECTOR imager.

[4] = test system: Secretion of IL10 by OCI-LY3 ABC-DLBCL cells; assay: Human IL10 Mesoscale assay (OCI-LY3); format: cell-based; settings: read-out: Human IL10 Mesoscale assay (OCI-LY3)
Description: as §1, §2, §3

[5] = OCI-LY3 cells, 24 h incubation, supernatant, MSD V-Plex

Structure (SMILES): Cc1nc(-n2nccn2)c(Cl)cc1NC(=O)c1cnn(-c2ccc(F)c(N)n2)c1C(F)(F)F [Cpd 179, 1-(6-amino-5-fluoropyridin-2-yl)-N-(5-chloro-2-methyl-6-(2H-1,2,3-triazol-2-yl)pyridin-3-yl)-5-(trifluoromethyl)-1H-pyrazole-4-carboxamide]
- IC50 [3, 5]: 676 nM
- IC50 [2]: 204 nM
- IC50 [4, 5]: 324 nM

Structure (SMILES): Nc1cccc(-n2ncc(C(=O)Nc3cnc(-n4nccn4)c(Cl)c3)c2C(F)(F)F)n1 [Cpd 180, 1-(6-aminopyridin-2-yl)-N-(5-chloro-6-(2H-1,2,3-triazol-2-yl)pyridin-3-yl)-5-(trifluoromethyl)-1H-pyrazole-4-carboxamide]
- IC50 [3, 5]: 257 nM
- IC50 [2]: 219 nM
- IC50 [4, 5]: 170 nM

Structure (SMILES): Cc1nc(-n2nccn2)c(Br)cc1NC(=O)c1cnn(-c2ccc(F)c(N)n2)c1C(F)(F)F [Cpd 181, 1-(6-amino-5-fluoropyridin-2-yl)-N-(5-bromo-2-methyl-6-(2H-1,2,3-triazol-2-yl)pyridin-3-yl)-5-(trifluoromethyl)-1H-pyrazole-4-carboxamide]
- IC50 [3, 5]: 363 nM
- IC50 [2]: 234 nM
- IC50 [4, 5]: 240 nM

Structure (SMILES): Cc1nc(-n2nccn2)c(C#N)cc1NC(=O)c1cnn(-c2ccc(F)c(N)n2)c1C(F)(F)F [Cpd 182, 1-(6-amino-5-fluoropyridin-2-yl)-N-(5-cyano-2-methyl-6-(2H-1,2,3-triazol-2-yl)pyridin-3-yl)-5-(trifluoromethyl)-1H-pyrazole-4-carboxamide]
- IC50 [3, 5]: 490 nM
- IC50 [2]: 234 nM
- IC50 [4, 5]: 389 nM

Structure (SMILES): Nc1ccc(Cl)c(-n2ncc(C(=O)Nc3cnc(-n4nccn4)c(Cl)c3)c2C(F)(F)F)n1 [Cpd 183, 1-(6-amino-3-chloropyridin-2-yl)-N-(5-chloro-6-(2H-1,2,3-triazol-2-yl)pyridin-3-yl)-5-(trifluoromethyl)-1H-pyrazole-4-carboxamide]
- IC50 [3, 5]: 269 nM
- IC50 [2]: 282 nM
- IC50 [4, 5]: 195 nM

Structure (SMILES): Cc1ccc(N)nc1-n1ncc(C(=O)Nc2cnc(-n3nccn3)c(Cl)c2)c1C(F)(F)F [Cpd 185, 1-(6-amino-3-methylpyridin-2-yl)-N-(5-chloro-6-(2H-1,2,3-triazol-2-yl)pyridin-3-yl)-5-(trifluoromethyl)-1H-pyrazole-4-carboxamide]
- IC50 [3, 5]: 490 nM
- IC50 [2]: 331 nM
- IC50 [4, 5]: 355 nM

Structure (SMILES): Cc1cc(-n2nccn2)c(Cl)cc1NC(=O)c1cnn(-c2ccc(F)c(N)n2)c1C(F)(F)F [Cpd 193, 1-(6-amino-5-fluoropyridin-2-yl)-N-(5-chloro-2-methyl-4-(2H-1,2,3-triazol-2-yl)phenyl)-5-(trifluoromethyl)-1H-pyrazole-4-carboxamide]
- IC50 [3, 5]: 871 nM
- IC50 [2]: 1170 nM
- IC50 [4, 5]: 741 nM

Structure (SMILES): Cc1cc(-n2nccn2)c(C#N)cc1NC(=O)c1cnn(-c2ccc(F)c(N)n2)c1C(F)(F)F [Cpd 195, 1-(6-amino-5-fluoropyridin-2-yl)-N-(5-cyano-2-methyl-4-(2H-1,2,3-triazol-2-yl)phenyl)-5-(trifluoromethyl)-1H-pyrazole-4-carboxamide]
- IC50 ([3]; OCI-Ly3, 24 h): 5370 nM
- IC50 [2]: 1200 nM
- IC50 ([4]; OCI-Ly3, 24 h): 1860 nM

Structure (SMILES): Cc1nc(-n2nccn2)c(C#N)cc1NC(=O)c1cnn(-c2ccc(Cl)c(N)n2)c1C(F)(F)F [Cpd 200, 1-(6-amino-5-chloropyridin-2-yl)-N-(5-cyano-2-methyl-6-(2H-1,2,3-triazol-2-yl)pyridin-3-yl)-5-(trifluoromethyl)-1H-pyrazole-4-carboxamide]
- IC50 [3, 5]: 794 nM
- IC50 [2]: 275 nM
- IC50 [4, 5]: 245 nM

These reach a lower IC50 [2]. Values come first.

- IC50 [1]: 1070 nM
- IC50 [2]: 54 nM
Structure (SMILES): N#Cc1cc(NC(=O)c2cnn(-c3ccc(F)cc3Br)c2C(F)(F)F)cnc1-n1nccn1 [Cpd 50, 1-(2-bromo-4-fluorophenyl)-N-(5-cyano-6-(2H-1,2,3-triazol-2-yl)pyridin-3-yl)-5-(trifluoromethyl)-1H-pyrazole-4-carboxamide]

- IC50 [1]: 1620 nM
- IC50 [2]: 89 nM
Structure (SMILES): COc1cc(F)ccc1-n1ncc(C(=O)Nc2cnc(-n3nccn3)c(C#N)c2)c1C(F)(F)F [Cpd 54, N-(5-cyano-6-(2H-1,2,3-triazol-2-yl)pyridin-3-yl)-1-(4-fluoro-2-methoxyphenyl)-5-(trifluoromethyl)-1H-pyrazole-4-carboxamide]

- IC50 [1]: 3390 nM
- IC50 [2]: 62 nM
Structure (SMILES): Cc1ccccc1-n1ncc(C(=O)Nc2cnc(-n3nccn3)c(C#N)c2)c1C(F)(F)F [Cpd 55, N-(5-cyano-6-(2H-1,2,3-triazol-2-yl)pyridin-3-yl)-1-(o-tolyl)-5-(trifluoromethyl)-1H-pyrazole-4-carboxamide]

- IC50 [1]: 1860 nM
- IC50 [2]: 78 nM
Structure (SMILES): N#Cc1cc(NC(=O)c2cnn(-c3cccc(F)c3Cl)c2C(F)(F)F)cnc1-n1nccn1 [Cpd 61, 1-(2-chloro-3-fluorophenyl)-N-(5-cyano-6-(2H-1,2,3-triazol-2-yl)pyridin-3-yl)-5-(trifluoromethyl)-1H-pyrazole-4-carboxamide]

- IC50 [3, 5]: 200 nM
- IC50 [2]: 151 nM
- IC50 [4, 5]: 178 nM
Structure (SMILES): Cc1cc(F)ccc1-n1ncc(C(=O)Nc2cc(Cl)c(-n3nccn3)nc2C)c1C(F)(F)F [Cpd 172, N-(5-chloro-2-methyl-6-(2H-1,2,3-triazol-2-yl)pyridin-3-yl)-1-(4-fluoro-2-methylphenyl)-5-(trifluoromethyl)-1H-pyrazole-4-carboxamide]

- IC50 [3, 5]: 129 nM
- IC50 [2]: 151 nM
- IC50 [4, 5]: 95 nM
Structure (SMILES): N#Cc1cc(NC(=O)c2cnn(-c3c(F)cc(F)cc3F)c2C(F)(F)F)cnc1-n1nccn1 [Cpd 173, N-(5-cyano-6-(2H-1,2,3-triazol-2-yl)pyridin-3-yl)-5-(trifluoromethyl)-1-(2,4,6-trifluorophenyl)-1H-pyrazole-4-carboxamide]

- IC50 [3, 5]: 331 nM
- IC50 [2]: 141 nM
- IC50 [4, 5]: 229 nM
Structure (SMILES): N#Cc1cc(NC(=O)c2cnn(-c3nc(N)ccc3Cl)c2C(F)(F)F)cnc1-n1nccn1 [Cpd 175, 1-(6-amino-3-chloropyridin-2-yl)-N-(5-cyano-6-(2H-1,2,3-triazol-2-yl)pyridin-3-yl)-5-(trifluoromethyl)-1H-pyrazole-4-carboxamide]

- IC50 [3, 5]: 813 nM
- IC50 [2]: 170 nM
- IC50 [4, 5]: 813 nM
Structure (SMILES): Cc1cc(N)nc(-n2ncc(C(=O)Nc3cnc(-n4nccn4)c(C#N)c3)c2C(F)(F)F)c1 [Cpd 176, 1-(6-amino-4-methylpyridin-2-yl)-N-(5-cyano-6-(2H-1,2,3-triazol-2-yl)pyridin-3-yl)-5-(trifluoromethyl)-1H-pyrazole-4-carboxamide]

- IC50 [3, 5]: 7410 nM
- IC50 [2]: 195 nM
- IC50 [4, 5]: 2750 nM
Structure (SMILES): Cc1nc(-n2nccn2)c(C#N)cc1NC(=O)c1cnn(-c2ccc(C#N)c(N)n2)c1C(F)(F)F [Cpd 177, 1-(6-amino-5-cyanopyridin-2-yl)-N-(5-cyano-2-methyl-6-(2H-1,2,3-triazol-2-yl)pyridin-3-yl)-5-(trifluoromethyl)-1H-pyrazole-4-carboxamide]
